In patent US20060020036A1, “Methods and compositions to promote bone homestasis” (priority 2004, published 2006):

Test system: calvarial skull bones (hemicalvaria)
Assay: Calvarial skull assay (bone organ culture)
Type: cell-based, CD1 mice
Protocol: CD1 pups are harvested around birth from CD1 female mice (received from Janvier (Le Genest St Isle, France) when they were 11 days pregnant). Pups are decapitated and the calvarial skull is dissected and split into 2 hemicalvaria. Hemicalvaria are blotted using sterile gauze, weighed and cultured in 24 well plates (MEMalpha or BGJb-Fitton-Jackson medium containing 50 μg/ml L-ascorbic acid (Sigma, A-4034), 5 mM β-glycerophosphate (Sigma, G-9891) and Penicillin-Streptomycin (Invitrogen Cat # 15140-122)). Small molecules (ligands, agonists, antagonists) are tested in at least three-fold at a minimum of 3 concentrations. Each small molecule is added to the medium on day 0 and added again when refreshing the medium (every 2-3 days). Three to 16 days after the start of the experiment, skulls are weighed again after blotting them dry using sterile gauze. The weight difference is calculated, expressed as percent weight change and the mean and standard deviations (SD) are calculated for the triplicate measurements. Data are analyzed using the Student's t-test.
The formation of new osteoid is analyzed histologically as follows: hemicalvaria are fixed in 10% buffered formalin for at least 2 days, decalcified in 10% EDTA overnight, processed through graded alcohols and embedded in paraffin wax. Three to 10 μm sections are prepared of the calvaria and stained with hematoxylin and eosin (H&E). Healthy cells, dead cells, old and new bone, and collagen are identified by their distinctive morphology and colouring observed after H&E staining. The surfaces taken by these are measured stereologically (μm^2 readout) and termed Osteoblast area, Debris area, Native and New bone area, Collagen area and Total area (sum of the previous 5 areas), respectively. In addition, the thickness (μm readout) is measured at 8 positions, evenly spaced over the section.
The histological readout of the calvarial skull assay is developed using known osteogenic agents. Hemicalvaria were treated with recombinant human parathyroid hormone (rhPTH).
T0901317 is added to the culture medium of the dissected hemicalvaria at the day of dissection at several doses (19.5, 78.1 and 313 nM), in fourfold. The concentration of the solvent (vehicle), DMSO, is fixed at a final concentration of 0.05%. The medium, containing T0901317 or vehicle control is refreshed every 2-3 days. Hemicalvaria are harvested 7 days after the initiation of the experiment and subjected to the histological analysis described above.

[1] = 19.5, 78.1 and 313 nM, 7 days, histology (H&E)

O=S(=O)(c1ccccc1)N(CC(F)(F)F)c1ccc(C(O)(C(F)(F)F)C(F)(F)F)cc1 [T0901317, N-(2,2,2-trifluoroethyl)-N-[4-[2,2,2-trifluoro-1-hydroxy-1-(trifluoromethyl)ethyl]phenyl]-benzenesulfonamide]
dose-response activity towards areas of osteoblast (19.5, 78.1 and 313 nM, 7 days): Dose-response activity of the compound is observed
dose-response activity towards thickness (19.5, 78.1 and 313 nM, 7 days): Dose-response activity of the compound is observed
dose-response activity towards total area (sum of all areas measured) (19.5, 78.1 and 313 nM, 7 days): Dose-response activity of the compound is observed
areas of collagen [1]: Statistically significant increases
areas of new bone [1]: Statistically significant increases
areas of osteoblast [1]: Statistically significant increases
weight increases in calvarial skull explants (FIG. 18): Weight increases
